Experimental data taken from publication PMC11643077, “Synthesis of 1,2,4-Oxadiazin-5(6H)-One Derivatives and Their Biological Investigation as Monoamine Oxidase Inhibitors” (Molecules, 2024).

Columns and labels:
MAO-B = target: T1, MAO-B (Homo sapiens, UniProt P27338); experiment: MAO-B inhibition, recombinant human enzyme, kynuramine substrate, fluorometric end-point; format: biochemical; conditions: mean ± SD of triplicate, racemic mixtures, NI = no inhibition at 100 µM
T1 construct: purchased Merck
T1 sequence (P27338 1-520): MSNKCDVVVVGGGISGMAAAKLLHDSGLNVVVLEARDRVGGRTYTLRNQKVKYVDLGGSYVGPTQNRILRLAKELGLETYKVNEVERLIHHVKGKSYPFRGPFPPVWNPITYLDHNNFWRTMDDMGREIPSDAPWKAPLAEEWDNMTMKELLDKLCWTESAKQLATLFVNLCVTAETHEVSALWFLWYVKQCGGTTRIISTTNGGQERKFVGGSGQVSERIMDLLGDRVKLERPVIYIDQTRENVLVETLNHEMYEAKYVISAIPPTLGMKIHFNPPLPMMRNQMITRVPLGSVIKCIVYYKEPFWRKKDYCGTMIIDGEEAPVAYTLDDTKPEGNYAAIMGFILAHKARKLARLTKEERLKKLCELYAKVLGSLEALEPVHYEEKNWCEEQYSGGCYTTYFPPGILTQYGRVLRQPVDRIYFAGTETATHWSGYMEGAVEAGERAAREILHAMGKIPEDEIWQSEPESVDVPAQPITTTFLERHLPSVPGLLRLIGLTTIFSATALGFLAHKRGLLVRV
Procedure: (§1) The in vitro inhibition studies were carried out according to the published procedure, and the inhibition potencies were expressed as the IC50 values (Figure 2). […] A variety of C3 substituents were explored in this study, which included the phenyl, benzyl and 5-methylthiophen-2-yl moieties, while different substituents on the phenyl (e.g., CH3, OCH3, Cl, Br, F, CF3, OCF3, NO2, PhO) were considered.
(§2) The inhibition potencies of the 1,2,4-oxadiazin-5(6H)-one derivatives were determined using commercially available recombinant human MAO-A and MAO-B (Merck) according to the published procedure. Stock solutions of all compounds were prepared in DMSO and added to the enzyme reactions to yield a final concentration of 4% DMSO. […] Kynuramine was used as enzyme substrate for both MAO isoforms and was oxidized to ultimately form 4-hydroxyquinoline, which is a fluorescent metabolite. The concentrations of 4-hydroxyquinoline in the reactions were measured at end-point by fluorescence spectrometry (λex = 310 nm; λem = 400 nm). Using this approach, the rates of kynuramine oxidation by MAO were measured in the presence of different concentrations of the test inhibitors (0.003–100 µM) as well as in the absence of inhibitor. […] IC50 values were estimated from these plots and were reported as the mean ± SD of triplicate determinations.

MAO-A = target: T2, MAO-A (Homo sapiens, UniProt P21397); experiment: MAO-A inhibition, recombinant human enzyme, kynuramine substrate, fluorometric end-point; format: biochemical; conditions: mean ± SD of triplicate, racemic mixtures, NI = no inhibition at 100 µM
T2 construct: purchased Merck
T2 sequence (P21397 1-527): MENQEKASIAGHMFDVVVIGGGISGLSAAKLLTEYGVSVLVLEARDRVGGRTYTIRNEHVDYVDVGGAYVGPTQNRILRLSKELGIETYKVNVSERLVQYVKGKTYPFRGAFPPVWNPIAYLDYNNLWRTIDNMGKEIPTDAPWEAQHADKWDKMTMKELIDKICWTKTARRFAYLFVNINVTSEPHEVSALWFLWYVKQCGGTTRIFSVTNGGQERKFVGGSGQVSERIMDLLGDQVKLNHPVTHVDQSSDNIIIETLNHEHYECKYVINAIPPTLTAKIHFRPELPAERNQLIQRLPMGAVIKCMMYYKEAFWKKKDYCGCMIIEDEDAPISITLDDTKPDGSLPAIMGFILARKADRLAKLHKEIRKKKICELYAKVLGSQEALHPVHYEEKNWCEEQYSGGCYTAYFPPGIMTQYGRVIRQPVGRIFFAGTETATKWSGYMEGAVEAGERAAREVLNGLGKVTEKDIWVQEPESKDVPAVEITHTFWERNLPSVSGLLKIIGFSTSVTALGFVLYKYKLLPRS
Procedure: as §1, §2

SMILES | IC50 (MAO-B) [µM] | IC50 (MAO-A) [µM] | melting point [°C]
Cc1ccc(C2=NOCC(=O)N2)cc1 [Compound 3a, 3-(4-Methylphenyl)-4H-1,2,4-oxadiazin-5(6H)-one] | 37.2 ± 0.071 | 36.8 ± 1.83 | 140 to 141
O=C1CON=C(c2ccc(Br)cc2)N1 [Compound 3b, 3-(4-Bromophenyl)-4H-1,2,4-oxadiazin-5(6H)-one] | 13.6 ± 6.63 | 14.2 ± 0.94 | –
O=C1CON=C(c2ccc([N+](=O)[O-])cc2)N1 [Compound 3c, 3-(4-Nitrophenyl)-4H-1,2,4-oxadiazin-5(6H)-one] | 24.4 ± 2.48 | 17.3 ± 0.594 | 248 to 250
Cc1ccc(C2=NOCC(=O)N2)s1 [Compound 3d, 3-(5-Methylthiophen-2-yl)-4H-1,2,4-oxadiazin-5(6H)-one] | 16.6 ± 1.67 | 34.6 ± 5.47 | 216 to 218
Cc1ccc(C2=NOC(C)C(=O)N2)cc1 (stereo not shown) [Compound 4a, 6-Methyl-3-(4-methylphenyl)-4H-1,2,4-oxadiazin-5(6H)-one] | 24.5 ± 0.198 | 67 ± 0.007 | –
CC1ON=C(c2ccc(Br)cc2)NC1=O (stereo not shown) [Compound 4b, 3-(4-Bromophenyl)-6-methyl-4H-1,2,4-oxadiazin-5(6H)-one] | 27.1 ± 3.37 | 37.4 ± 4.18 | –
COc1ccc(C2=NOC(C)C(=O)N2)cc1 (stereo not shown) [Compound 4e, 3-(4-Methoxyphenyl)-6-methyl-4H-1,2,4-oxadiazin-5(6H)-one] | 20 ± 0.643 | 51.2 ± 15.1 | –
CCC1ON=C(c2ccc(C)cc2)NC1=O (stereo not shown) [Compound 5a, 6-Ethyl-3-(4-methylphenyl)-4H-1,2,4-oxadiazin-5(6H)-one] | 4.28 ± 0.318 | > 100 | –
CCC1ON=C(c2ccc(Br)cc2)NC1=O (stereo not shown) [Compound 5b, 3-(4-Bromophenyl)-6-ethyl-4H-1,2,4-oxadiazin-5(6H)-one] | 5.11 ± 0.308 | 35.4 ± 1.54 | –
CCC1ON=C(c2ccccc2)NC1=O (stereo not shown) [Compound 5g, 6-Ethyl-3-phenyl-4H-1,2,4-oxadiazin-5(6H)-one] | > 100 | > 100 | –
COC(=O)CC1ON=C(c2ccccc2)NC1=O (stereo not shown) [Compound 6a] | > 100 | > 100 | –
COC(=O)CC1ON=C(c2ccccn2)NC1=O (stereo not shown) [Compound 6b] | 23.6 ± 1.11 | 34.2 ± 6.15 | –
COC(=O)CC1ON=C(c2ccc([N+](=O)[O-])cc2)NC1=O (stereo not shown) [Compound 6c] | 52.3 ± 12.7 | > 100 | –
COC(=O)CC1ON=C(c2ccc(C)s2)NC1=O (stereo not shown) [Compound 6d] | 33.9 ± 1.44 | 40.7 ± 8.83 | –
COC(=O)CC1ON=C(c2ccncc2)NC1=O (stereo not shown) [Compound 6e] | > 100 | > 100 | –
COC(=O)CC1ON=C(c2ccc(C(F)(F)F)cc2)NC1=O (stereo not shown) [Compound 6f] | 22.9 ± 5.27 | > 100 | –
O=C1NC(c2ccc([N+](=O)[O-])cc2)=NOC1Cc1nc(-c2ccc([N+](=O)[O-])cc2)no1 (stereo not shown) [Compound 7c] | 0.371 ± 0.037 | 12.9 ± 0.014 | –
COc1ccc2c(c1)[nH]c1c(C)nccc12 [Harmine, reference compound] | > 100 | – | –

Next, values leading:

IC50 (MAO-B) [µM] | IC50 (MAO-A) [µM] | melting point [°C] | SMILES
– | 54.3 ± 14.3 | – | Cc1ccc(C2=NOC(Cc3nc(-c4ccc(C)cc4)no3)C(=O)N2)cc1 (stereo not shown) [Compound 7a]
14.3 ± 3.27 | > 100 | – | O=C1NC(c2ccc(F)cc2)=NOC1Cc1nc(-c2ccc(F)cc2)no1 (stereo not shown) [Compound 7b]
46.3 ± 17.8 | > 100 | – | O=C1NC(c2ccc(C(F)(F)F)cc2)=NOC1Cc1nc(-c2ccc(C(F)(F)F)cc2)no1 (stereo not shown) [Compound 7d]
– | > 100 | – | Cc1ccc(C2=NOC(CC(=O)O)C(=O)N2)cc1 (stereo not shown) [Compound 8a]
> 100 | 12.7 ± 1.34 | – | O=C(O)CC1ON=C(c2ccc(Oc3ccccc3)cc2)NC1=O (stereo not shown) [Compound 8b]
> 100 | > 100 | – | COc1ccc(C2=NOC(CC(=O)O)C(=O)N2)cc1 (stereo not shown) [Compound 8c]
> 100 | > 100 | – | O=C(O)CC1ON=C(c2ccc(C(F)(F)F)cc2)NC1=O (stereo not shown) [Compound 8d]
62.2 ± 15.7 | > 100 | – | O=C(O)CC1ON=C(c2cc(Cl)cc(Cl)c2)NC1=O (stereo not shown) [Compound 8e]
